The nature of test [1]: intracellular Trypanosoma cruzi inhibitors in host cells – cell-based, plate reader, cherry-pick samples, set 3, dose response (AID 651818).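 Further: compounds incubated with infected cells for about four days.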 The test is classed as functional.
A further test deals with Cytochrome P450 3A4 (Homo sapiens, UniProt P08684).
Another test has as its target T1, Protein skinhead-1 (Caenorhabditis elegans, UniProt P34707).
T1 sequence (P34707 whole entry): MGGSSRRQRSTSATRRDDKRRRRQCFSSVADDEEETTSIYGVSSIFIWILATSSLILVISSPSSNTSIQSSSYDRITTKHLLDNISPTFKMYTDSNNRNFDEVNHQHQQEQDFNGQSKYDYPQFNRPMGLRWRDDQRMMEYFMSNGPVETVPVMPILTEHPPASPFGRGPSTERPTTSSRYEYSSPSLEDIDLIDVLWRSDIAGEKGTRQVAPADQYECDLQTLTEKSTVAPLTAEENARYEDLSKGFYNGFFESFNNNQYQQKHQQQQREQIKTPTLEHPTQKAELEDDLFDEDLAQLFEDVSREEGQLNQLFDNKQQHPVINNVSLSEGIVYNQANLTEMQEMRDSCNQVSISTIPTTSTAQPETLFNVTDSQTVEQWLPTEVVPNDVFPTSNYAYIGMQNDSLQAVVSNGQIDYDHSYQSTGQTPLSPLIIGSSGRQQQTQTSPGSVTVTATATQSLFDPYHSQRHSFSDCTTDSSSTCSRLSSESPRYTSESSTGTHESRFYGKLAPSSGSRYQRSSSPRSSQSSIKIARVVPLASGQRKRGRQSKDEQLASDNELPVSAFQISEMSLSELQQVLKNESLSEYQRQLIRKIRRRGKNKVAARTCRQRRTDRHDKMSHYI
In kind it is functional.

The target in another test is T2, Cytochrome P450 1A2 (Homo sapiens, UniProt P05177).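 Further: PubChem cytochrome P450 panel assay, CYP1A2 panel member.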
T2 sequence (P05177 whole entry): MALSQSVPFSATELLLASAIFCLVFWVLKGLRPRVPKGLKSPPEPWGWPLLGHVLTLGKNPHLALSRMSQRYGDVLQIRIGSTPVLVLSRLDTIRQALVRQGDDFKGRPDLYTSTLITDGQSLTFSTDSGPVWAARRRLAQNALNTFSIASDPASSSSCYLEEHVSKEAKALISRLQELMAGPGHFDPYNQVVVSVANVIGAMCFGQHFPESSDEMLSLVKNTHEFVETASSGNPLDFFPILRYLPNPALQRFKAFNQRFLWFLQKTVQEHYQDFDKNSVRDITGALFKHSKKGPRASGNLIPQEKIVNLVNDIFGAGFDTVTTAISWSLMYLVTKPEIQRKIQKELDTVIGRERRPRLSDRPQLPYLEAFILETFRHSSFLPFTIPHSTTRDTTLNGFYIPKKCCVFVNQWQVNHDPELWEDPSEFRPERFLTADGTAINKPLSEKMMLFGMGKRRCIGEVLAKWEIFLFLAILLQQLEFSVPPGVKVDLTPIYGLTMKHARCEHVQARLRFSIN

The next test deals with Cytochrome P450 2C9 (Homo sapiens, UniProt P11712).
Test [2] addresses T3, Rac GTPase-activating protein 1 (Homo sapiens, UniProt Q9H0H5).
T3 sequence (Q9H0H5 whole entry): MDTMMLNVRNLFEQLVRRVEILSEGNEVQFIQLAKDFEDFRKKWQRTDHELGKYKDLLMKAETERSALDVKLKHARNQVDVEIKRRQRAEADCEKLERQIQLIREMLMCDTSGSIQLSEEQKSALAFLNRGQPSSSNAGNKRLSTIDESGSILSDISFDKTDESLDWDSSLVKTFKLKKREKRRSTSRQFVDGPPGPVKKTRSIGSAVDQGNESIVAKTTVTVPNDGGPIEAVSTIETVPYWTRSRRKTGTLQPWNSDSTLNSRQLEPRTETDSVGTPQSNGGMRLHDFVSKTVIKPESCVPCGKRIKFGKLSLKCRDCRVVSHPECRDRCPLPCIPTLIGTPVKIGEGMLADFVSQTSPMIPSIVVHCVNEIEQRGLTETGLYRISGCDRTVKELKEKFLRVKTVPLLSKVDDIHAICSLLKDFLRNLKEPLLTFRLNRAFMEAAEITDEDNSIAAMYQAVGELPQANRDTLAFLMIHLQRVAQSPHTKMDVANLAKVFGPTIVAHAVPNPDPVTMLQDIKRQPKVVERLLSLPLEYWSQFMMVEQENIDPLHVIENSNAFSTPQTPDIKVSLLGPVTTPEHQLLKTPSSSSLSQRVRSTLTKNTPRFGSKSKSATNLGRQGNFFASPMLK
Put plainly: blockers of MgcRacGAP-driven Rac1 GTP hydrolysis – biochemical, ADP Hunter fluorescence, primary and confirmatory, confirmation (AID 624330). In kind it is functional.

For the next test, the target named is Large T antigen (Simian virus 40, UniProt P03070). The test is classed as functional, Betapolyomavirus macacae.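 Further: Confirmatory-stage PubChem screen for compounds that inhibit SV40 T antigen.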
The target of a further test is Cytochrome P450 2C19 (Homo sapiens, UniProt P33261). Put plainly: Cytochrome panel assay with activity outcomes. Panel member name: p450-cyp2c19 Compounds with AC50 equal or less than 10 uM are considered active. The test is classed as functional. To be noted: read-out: AC50.
Test [3] concerns the target T4, Replicative DNA helicase DnaB (Mycobacterium tuberculosis, UniProt P9WMR3).
T4 sequence (P9WMR3 whole entry): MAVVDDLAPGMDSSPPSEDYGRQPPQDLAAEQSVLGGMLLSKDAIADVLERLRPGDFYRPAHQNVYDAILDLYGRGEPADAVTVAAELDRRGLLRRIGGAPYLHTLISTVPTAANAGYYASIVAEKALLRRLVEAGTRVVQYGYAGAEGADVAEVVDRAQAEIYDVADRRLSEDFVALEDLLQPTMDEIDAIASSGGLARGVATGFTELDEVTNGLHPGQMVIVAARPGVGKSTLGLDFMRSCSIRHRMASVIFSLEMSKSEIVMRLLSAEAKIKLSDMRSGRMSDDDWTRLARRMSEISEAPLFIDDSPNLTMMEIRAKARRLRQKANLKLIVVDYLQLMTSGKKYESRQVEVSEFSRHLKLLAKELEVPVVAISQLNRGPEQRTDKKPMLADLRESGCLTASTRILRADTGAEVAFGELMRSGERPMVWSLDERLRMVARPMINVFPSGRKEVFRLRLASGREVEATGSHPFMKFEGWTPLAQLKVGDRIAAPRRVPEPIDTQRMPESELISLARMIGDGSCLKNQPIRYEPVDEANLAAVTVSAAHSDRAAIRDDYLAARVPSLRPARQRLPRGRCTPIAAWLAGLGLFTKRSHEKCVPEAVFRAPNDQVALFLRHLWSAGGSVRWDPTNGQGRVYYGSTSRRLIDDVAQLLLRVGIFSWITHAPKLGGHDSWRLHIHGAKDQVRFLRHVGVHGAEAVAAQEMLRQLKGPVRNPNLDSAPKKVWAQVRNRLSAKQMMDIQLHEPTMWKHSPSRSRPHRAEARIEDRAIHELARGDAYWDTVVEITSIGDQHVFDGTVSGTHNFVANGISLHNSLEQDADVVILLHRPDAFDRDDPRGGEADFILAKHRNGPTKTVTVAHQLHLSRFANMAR
Nature of the test: DnaB intein splicing inhibitors, dose response, biochemical, cell-free fluorescence (AID 449749). In kind it is functional.

In the next test the target is T5, Protein RecA (Mycobacterium tuberculosis, UniProt P9WHJ3).
T5 sequence (P9WHJ3 whole entry): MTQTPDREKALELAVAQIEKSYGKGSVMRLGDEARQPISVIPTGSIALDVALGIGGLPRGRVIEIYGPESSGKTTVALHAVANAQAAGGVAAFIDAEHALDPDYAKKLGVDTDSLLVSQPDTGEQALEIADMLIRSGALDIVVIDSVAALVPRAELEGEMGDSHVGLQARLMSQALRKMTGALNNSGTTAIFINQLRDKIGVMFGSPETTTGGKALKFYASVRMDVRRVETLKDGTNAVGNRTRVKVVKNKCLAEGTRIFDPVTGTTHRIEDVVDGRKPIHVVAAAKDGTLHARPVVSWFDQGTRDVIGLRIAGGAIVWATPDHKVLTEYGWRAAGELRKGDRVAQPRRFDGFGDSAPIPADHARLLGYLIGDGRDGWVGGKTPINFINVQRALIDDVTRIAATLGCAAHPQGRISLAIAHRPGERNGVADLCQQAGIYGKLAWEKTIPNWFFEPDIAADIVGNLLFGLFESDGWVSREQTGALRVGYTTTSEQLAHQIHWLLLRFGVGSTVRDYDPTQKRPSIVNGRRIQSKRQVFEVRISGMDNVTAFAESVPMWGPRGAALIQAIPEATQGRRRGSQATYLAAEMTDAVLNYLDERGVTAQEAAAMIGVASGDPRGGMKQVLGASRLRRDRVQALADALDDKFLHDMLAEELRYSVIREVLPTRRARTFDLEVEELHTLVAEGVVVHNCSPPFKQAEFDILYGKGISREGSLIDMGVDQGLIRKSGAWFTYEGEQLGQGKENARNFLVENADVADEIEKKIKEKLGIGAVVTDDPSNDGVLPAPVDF
Put plainly: Fluorescence Cell-Free Homogeneous Dose Retest to Identify Inhibitors of RecA-Intein Splicing Activity. [Related pubchem assays (depositor defined):AID2097, AID2223, AID489010, AID492950]. The test is classed as functional.

The term AC50 denotes the concentration giving half of the maximal activity seen. By IC50 is commonly meant the midpoint of a concentration-inhibition curve. A word on the EC50: it is the concentration needed to bring the measured effect to its halfway point.

Active and inactive are the calls of the source.

Chain of Cytochrome P450 3A4 (P08684 whole entry): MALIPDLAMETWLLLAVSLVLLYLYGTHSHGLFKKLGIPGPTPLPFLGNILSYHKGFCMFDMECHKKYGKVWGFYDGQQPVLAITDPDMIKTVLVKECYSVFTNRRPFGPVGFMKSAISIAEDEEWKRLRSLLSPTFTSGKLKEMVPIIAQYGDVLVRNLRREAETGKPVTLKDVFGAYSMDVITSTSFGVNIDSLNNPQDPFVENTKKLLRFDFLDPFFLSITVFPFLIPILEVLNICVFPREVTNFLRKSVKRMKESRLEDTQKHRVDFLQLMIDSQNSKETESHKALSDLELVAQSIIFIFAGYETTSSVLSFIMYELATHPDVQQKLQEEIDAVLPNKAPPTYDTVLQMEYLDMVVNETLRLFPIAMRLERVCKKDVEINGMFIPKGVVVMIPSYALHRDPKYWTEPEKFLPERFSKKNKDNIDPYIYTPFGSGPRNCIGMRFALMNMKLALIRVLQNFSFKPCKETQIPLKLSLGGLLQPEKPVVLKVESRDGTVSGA
Chain of Cytochrome P450 2C19 (P33261 whole entry): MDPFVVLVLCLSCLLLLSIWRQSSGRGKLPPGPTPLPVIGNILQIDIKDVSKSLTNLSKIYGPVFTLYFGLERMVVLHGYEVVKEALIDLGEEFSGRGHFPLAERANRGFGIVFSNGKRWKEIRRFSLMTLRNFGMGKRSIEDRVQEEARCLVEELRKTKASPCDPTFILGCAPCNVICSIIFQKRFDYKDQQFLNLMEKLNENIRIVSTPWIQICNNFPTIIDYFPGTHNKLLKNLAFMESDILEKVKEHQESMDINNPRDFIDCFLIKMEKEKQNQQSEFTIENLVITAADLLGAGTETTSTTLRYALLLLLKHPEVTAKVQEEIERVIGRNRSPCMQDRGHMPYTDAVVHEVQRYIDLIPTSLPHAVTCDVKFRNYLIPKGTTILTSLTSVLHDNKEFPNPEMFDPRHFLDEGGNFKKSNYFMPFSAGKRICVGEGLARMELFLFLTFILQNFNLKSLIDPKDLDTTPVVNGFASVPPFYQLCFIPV
Chain of Large T antigen (P03070 whole entry): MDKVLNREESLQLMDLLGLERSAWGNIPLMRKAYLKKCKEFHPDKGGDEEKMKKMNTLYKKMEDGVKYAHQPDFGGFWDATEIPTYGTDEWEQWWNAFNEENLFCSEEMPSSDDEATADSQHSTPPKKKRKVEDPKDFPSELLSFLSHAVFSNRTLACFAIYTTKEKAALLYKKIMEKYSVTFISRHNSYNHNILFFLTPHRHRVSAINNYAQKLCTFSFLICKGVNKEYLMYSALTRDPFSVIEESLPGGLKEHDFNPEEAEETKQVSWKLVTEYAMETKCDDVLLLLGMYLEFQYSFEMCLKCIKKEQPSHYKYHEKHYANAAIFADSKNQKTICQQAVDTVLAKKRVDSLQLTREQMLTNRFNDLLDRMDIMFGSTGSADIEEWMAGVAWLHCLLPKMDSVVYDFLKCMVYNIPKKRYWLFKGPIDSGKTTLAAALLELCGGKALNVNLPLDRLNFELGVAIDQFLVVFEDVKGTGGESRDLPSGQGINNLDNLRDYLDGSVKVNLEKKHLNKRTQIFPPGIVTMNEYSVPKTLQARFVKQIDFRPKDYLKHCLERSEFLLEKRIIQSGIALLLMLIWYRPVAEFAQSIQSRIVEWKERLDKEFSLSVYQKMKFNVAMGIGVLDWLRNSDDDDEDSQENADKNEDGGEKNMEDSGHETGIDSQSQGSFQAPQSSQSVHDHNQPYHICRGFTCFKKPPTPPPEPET
Chain of Cytochrome P450 2C9 (P11712 whole entry): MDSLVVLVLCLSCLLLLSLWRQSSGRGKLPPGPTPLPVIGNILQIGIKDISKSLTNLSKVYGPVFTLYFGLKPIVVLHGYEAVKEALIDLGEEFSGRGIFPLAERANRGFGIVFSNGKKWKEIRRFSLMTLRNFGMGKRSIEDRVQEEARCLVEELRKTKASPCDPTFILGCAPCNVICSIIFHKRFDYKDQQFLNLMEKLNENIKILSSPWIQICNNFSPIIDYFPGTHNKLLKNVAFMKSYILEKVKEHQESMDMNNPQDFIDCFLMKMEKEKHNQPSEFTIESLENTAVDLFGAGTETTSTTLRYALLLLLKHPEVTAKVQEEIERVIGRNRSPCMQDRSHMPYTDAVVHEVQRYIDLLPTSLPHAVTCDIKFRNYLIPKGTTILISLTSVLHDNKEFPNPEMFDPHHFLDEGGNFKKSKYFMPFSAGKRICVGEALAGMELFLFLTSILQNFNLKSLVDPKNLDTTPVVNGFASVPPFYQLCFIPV

Consider `C[C@H](CO)N1C[C@H](C)[C@@H](CN(C)Cc2ccc(C(=O)Nc3ccccc3N)cc2)Oc2c(NC(=O)Nc3ccc(F)cc3)cccc2C1=O`, for which the AC50 in test [1] is 4.17 µM (active).

Turning to `C[C@@H]1CN([C@H](C)CO)C(=O)c2cccc(NC(=O)Nc3ccc(C(F)(F)F)cc3)c2O[C@H]1CN(C)C(=O)Nc1ccc(C(F)(F)F)cc1`, in test [1], the half-maximal activity concentration (AC50) is 6.75 µM (active).

For `Cn1c(-c2ccc(CN3CCCCC3)o2)nc2ccccc21`, the AC50 on Cytochrome P450 3A4 is 28.2 µM (inconclusive); at Cytochrome P450 1A2, 12.6 µM (inconclusive); on Cytochrome P450 2C9, 2 µM (inconclusive). Besides, the IC50 on Protein skinhead-1 was > 100 µM (inactive).

Take `C[C@@H](CCC(=O)O)C(=O)O`: at Cytochrome P450 1A2, the AC50 is 6.31 µM (inconclusive).

`C[C@H](CO)N1C[C@H](C)[C@H](CN(C)Cc2ccc(-c3ccccc3)cc2)Oc2ccc(NC(=O)Nc3ccc(C(F)(F)F)cc3)cc2C1=O`: in [1], the AC50 is 5.37 µM (active).

In the case of `Cn1cccc1/C=N/N1CCN(c2ccccn2)CC1`, the IC50 in test [2] is 27.6 µM (active); at Large T antigen, 5.17 µM (active).

Turning to `O=C(NC1CCCCC1)C12CC3CC(C1)CC(n1cncn1)(C3)C2`, the AC50 is 28.2 µM (inconclusive) on Cytochrome P450 2C19, 3.55 µM (inconclusive) at Cytochrome P450 3A4, 28.2 µM (inconclusive) on Cytochrome P450 1A2 and 5.01 µM (inconclusive) on Cytochrome P450 2C9.

As to `COc1ccc(CN(C)C[C@@H]2Oc3ccc(NS(=O)(=O)c4ccc(Cl)cc4)cc3CC(=O)N([C@H](C)CO)C[C@H]2C)cc1`, the AC50 in [1] is 2.61 µM (active).

`COc1ccc(-c2nc3cnc(N4CCOCC4)nc3n(CCC#N)c2=O)cc1`: the AC50 on Cytochrome P450 1A2 was 3.16 µM (inconclusive).

As to `CC(C)CN(Cc1c(O)ccc2c3c(c(=O)oc12)CCC3)CC(C)C`, the AC50 was 20 µM (inconclusive) on Cytochrome P450 2C19, 17.8 µM (inconclusive) on Cytochrome P450 3A4 and 15.8 µM (inconclusive) at Cytochrome P450 1A2.

With `C[C@H](CO)N1C[C@H](C)[C@H](CN(C)Cc2ccc(C(=O)Nc3ccccc3N)cc2)Oc2ccc(NS(=O)(=O)c3cccs3)cc2CC1=O`, the half-maximal activity concentration (AC50) in test [1] was 4.59 µM (active).

Take `Cc1cc(NC(=O)c2nn(C)c(C)c2[N+](=O)[O-])no1`: the AC50 on Cytochrome P450 1A2 is 25.1 µM (inconclusive).

For the molecule `C[C@H](CO)N1C[C@H](C)[C@H](CN(C)Cc2ccc(C(=O)Nc3ccccc3N)cc2)Oc2ccc(NC(=O)Nc3ccc(F)cc3)cc2CC1=O`, the AC50 in test [1] is 2.26 µM (active).

On to `CCN(CC)c1ccc(NC(=O)CSc2nnc3nc(C)cc(C)n23)cc1`, for which the values for the AC50 at Cytochrome P450 2C19 and on Cytochrome P450 3A4 were 17.8 µM (inconclusive) and 39.8 µM (inconclusive), respectively. In addition, the IC50 on Large T antigen is 19.8 µM (active).

On to `O=C(N/N=C/c1ccc(OC(=O)c2ccco2)cc1)c1ccc[n+]([O-])c1`, for which the AC50 in [3] is 24.6 µM (active). In addition, the EC50 on Protein RecA was 24.6 µM (active). For the same molecule, the half-inhibitory concentration (IC50) at Large T antigen was 55.5 µM (active).

For `CCOC(=O)Cc1csc(NC(=O)c2c(-c3c(Cl)cccc3Cl)noc2C)n1`, the AC50 at Cytochrome P450 1A2 was 14.1 µM (inconclusive).

For `C[C@@H]1CCCCO[C@H](CN(C)Cc2ccc(Cl)c(Cl)c2)[C@@H](C)CN([C@H](C)CO)C(=O)c2cc(NS(=O)(=O)c3ccc(Cl)cc3)ccc2O1`, the AC50 in test [1] is 4.22 µM (active).

On to `C[C@@H]1CN([C@H](C)CO)C(=O)Cc2cc(NS(=O)(=O)c3ccc(Cl)cc3)ccc2O[C@H]1CN(C)Cc1ccc(C(=O)Nc2ccccc2N)cc1`, for which the AC50 in test [1] was 4.53 µM (active).

Regarding `C[C@H](CO)N1C[C@H](C)[C@@H](CN(C)Cc2ccc(-c3ccccc3)cc2)Oc2c(NC(=O)NC3CCCCC3)cccc2C1=O`, the AC50 in test [1] was 4.23 µM (active).

As for `COc1ccc(-c2nc3cnc(Nc4ccccc4)nc3n(Cc3cccs3)c2=O)cc1`, the values for the concentration at half-maximal activity (AC50) on Cytochrome P450 1A2 and at Cytochrome P450 2C9 were 25.1 µM (inconclusive) and 12.6 µM (inconclusive), respectively.

Take `CN(Cc1cc(Cl)cc(Cl)c1O)Cc1c(O)ccc2ccccc12`: the AC50 is 0.631 µM (inconclusive) on Cytochrome P450 1A2 and 3.16 µM (inconclusive) at Cytochrome P450 2C9.

Regarding `CC(C)CCNC(=O)C12CN(Cc3ccccc3)CC1C(c1cccc([N+](=O)[O-])c1)=NO2` (configuration not stated), at Cytochrome P450 1A2, the AC50 was 14.1 µM (inconclusive).

These data come from ChEMBL document CHEMBL1201862, “PubChem BioAssay data set” (2004).
